The values below come from patent US9470680B2, “Fluorescence-based approach to monitor release factor-catalyzed termination of protein synthesis” (THE TRUSTEES OF COLUMBIA UNIVERSITY IN THE CITY OF NEW YORK, priority 2011, dated 2016).

Some results are limits rather than exact numbers.

As a reminder, the Kd is the constant that tells how readily two partners part at equilibrium.

Test [1] has as its system RC1 (release complex, fMet-Phe-(Cy3)tRNAPhe in the P site, stop codon at the A site). As to the kind of experiment: RF1-tRNA smFRET between P-site (Cy3)tRNAPhe and (Cy5)RF1 bound at the A site. The class given is binding, Escherichia coli. The note with it: UAA-U stop codon, in the presence of paromomycin (100 μM per FIG. 11). The source says: RCs assembled on a biotinylated mRNA were immobilized on the surface of a streptavidin-derivatized quartz flow cell and visualized with single-molecule resolution using a total internal reflection fluorescence microscope. RC surface immobilization strategy and lab-built total internal reflection fluorescence (TIRF) microscope are described in FIG. 10. […]
Quartz microscope slides were cleaned and subsequently derivatized with a mixture of polyethyleneglycol (PEG) and PEG-biotin in order to passivate the surface (Blanchard et al. 2004b). Just prior to data acquisition, slides were treated with streptavidin, allowing immobilization of ribosomal RCs bound to an mRNA with a 3′-biotinylated DNA oligonucleotide pre-annealed to its 5′ end. smFRET data was collected with a wide-field, prism-based total internal reflection fluorescence microscope utilizing a 150 mW diode-pumped 532 nm laser (CrystaLaser) operating at 24 mW for Cy3 excitation, a 25 mW diode-pumped 643 nm laser (CrystaLaser) operating at 19 mW for direct Cy5 excitation, a Dual-View multi-channel imaging system (MAG Biosystems) for separation of Cy3 and Cy5 fluorescence emissions, and a back-thinned charge-coupled device camera (Cascade II, Princeton Instruments) with 2-pixel binning and 50 ms exposure time for detection. […]
Raw intensity data was analyzed with the Metamorph software suite (Molecular Devices). […]

The next test has as its system RF1-bound RCs. As to the kind of experiment: RF3 activity assay (RF3-catalyzed RF1 recycling, multiple-turnover peptide release). The settings on record: limiting RF1; GDP, GTP or GDPNP; 10 minutes. The class given is biochemical, Escherichia coli. Here is the method:
RF3 activity was tested by following the extent of peptide release in cases where RF1 was limiting and RF3 was required to actively recycle RF1, thereby enabling multiple turnover (Zavialov et al. 2001). Reactions were performed as described, with two exceptions: when present, GDP, GTP, or GDPNP was added to the RF1/RF3 mix during the 1 minute pre-incubation, and upon adding the RF1/RF3/nucleotide mix to RCs, reactions were incubated for 10 minutes.

Test [2] deals with RC2 (release complex with L1(Cy5) ribosomes and (Cy3)tRNAPhe). As to the kind of experiment: L1-tRNA smFRET monitoring the GS1/GS2 equilibrium. The class given is biochemical, Escherichia coli. As to the method: RCs assembled on a biotinylated mRNA were immobilized on the surface of a streptavidin-derivatized quartz flow cell and visualized with single-molecule resolution using a total internal reflection fluorescence microscope. RC surface immobilization strategy and lab-built total internal reflection fluorescence (TIRF) microscope are described in FIG. 10. Experiments were performed at room temperature in Tris-polymix buffer at 15 mM Mg(OAc)2, supplemented with an oxygen-scavenging system (300 μg ml^−1 glucose oxidase, 40 μg ml^−1 catalase and 1% (w/v)(β-D-glucose). In addition, 1 mM 1,3,5,7-cyclooctatetraene (Aldrich) and p-nitrobenzyl alcohol (Fluka) was added to all buffers in order to quench a long-lived, non-fluorescent triplet state sampled by the Cy5 fluorophore. The oxygen-scavenging and triplet state quencher systems have no effect on the in vitro translation system used herein (Gonzalez et al. 2007; Blanchard et al. 2004b).
Quartz microscope slides were cleaned and subsequently derivatized with a mixture of polyethyleneglycol (PEG) and PEG-biotin in order to passivate the surface (Blanchard et al. 2004b). Just prior to data acquisition, slides were treated with streptavidin, allowing immobilization of ribosomal RCs bound to an mRNA with a 3′-biotinylated DNA oligonucleotide pre-annealed to its 5′ end. smFRET data was collected with a wide-field, prism-based total internal reflection fluorescence microscope utilizing a 150 mW diode-pumped 532 nm laser (CrystaLaser) operating at 24 mW for Cy3 excitation, a 25 mW diode-pumped 643 nm laser (CrystaLaser) operating at 19 mW for direct Cy5 excitation, a Dual-View multi-channel imaging system (MAG Biosystems) for separation of Cy3 and Cy5 fluorescence emissions, and a back-thinned charge-coupled device camera (Cascade II, Princeton Instruments) with 2-pixel binning and 50 ms exposure time for detection. Single ribosomal RCs were identified by characteristic single-fluorophore fluorescence intensities as well as single-step fluorophore photobleaching.
Raw intensity data was analyzed with the Metamorph software suite (Molecular Devices). […] For L1-tRNA smFRET experiments with RC2, excited Cy5 was directly with the 643 nm laser in frame one, followed by excitation with the 532 nm laser in order to generate FRET. […] Acquired trajectories composed of a pair of Cy3 and Cy5 intensity versus time trajectories from single ribosomes, were then visually inspected. […] For all RRF and RF3(GDPNP) datasets, an automated selection algorithm was first utilized before visual inspection of the trajectories. This algorithm averages each trajectory over three data points, differentiates intensity with respect to time, and calculates the correlation coefficient for each Cy3/Cy5 pair. Trajectories with a negative correlation coefficient (anti-correlated) were kept for further analysis. Finally, all trajectories were required to last at least 0.5 seconds (i.e. 10 frames) before photobleaching of either fluorophore.
Cy3 and Cy5 fluorescence intensities were baseline corrected in each trajectory by generating one-dimensional Cy3 and Cy5 fluorescence intensity histograms from trajectories within each dataset, determining the intensity value of the most populated bin (which represents background noise intensity after fluorophore photobleaching), and then subtracting this value from all Cy3 and Cy5 intensity data points within every trajectory. Due to the imperfect performance of emission filters, the Cy3 signal bleed-through into the Cy5 channel was experimentally determined to be ˜9%. The Cy5 intensity of each trajectory was corrected using this bleed-through coefficient. smFRET values for each Cy3/Cy5 data point were calculated using ICy5/(ICy3+ICy5), where ICy3 and ICy5 are the intensities of Cy3 and Cy5, respectively.
The rates of GS1→GS2 (kGS1→GS2) and G52→GS1 (kGS2→GS1) transitions for each dataset were determined as follows. […]

Test [3] has as its target GS1 conformation of the PoTC (RC2Pmn). As to the kind of experiment: RRF titration, binding isotherm fit of GS2/GS1 peak area ratio. Also noted: species or system Escherichia coli. The text has this: (§1) To more quantitatively probe the subtle effect of RRF on the GS1⇄GS2 equilibrium, one-dimensional smFRET histograms of the entire population of trajectories were plotted as a function of RRF concentration (FIG. 24). The areas under the peaks centered at 0.16 and 0.76 FRET report the equilibrium populations of GS1 and GS2, respectively. […] Assuming that RRF can bind to both GS1 and GS2, a plot of the GS2/GS1 peak area ratio (Keq) vs. RRF concentration can be fit by the following binding isotherm in order to determine the equilibrium dissociation constants for RRF binding to GS1 (Kd,GS1) and GS2 (Kd,GS2) (Sarkar et al. 2007):
(§2) [formula] where C is the GS2/GS1 peak area ratio in the absence of RRF.

The target of test [4] is GS2 conformation of the PoTC (RC2Pmn). Described as above. Also noted: species or system Escherichia coli.
Description: as §1, §2

The next test concerns the target vacant ribosomes. The note with it: in the absence of mRNA or tRNAs; read-out: Kd of RRF binding to vacant ribosomes; cited from earlier work.
Test [5] has as its system polypeptide release at a stop codon. The note with it: cited from earlier work.
[6] abbreviates: RC2RF1 in the presence of 1 μM RF1, RF3(GDP) and 1 mM GTP.
Setting [7] is: RC2RF1 in the presence of 1 μM RF1 and 1 μM RF3 form, no GTP.
Setting [8] is: RC2 pre-treated with puromycin (RC2Pmn), no factors, corrected rate.
Where [9] appears, read: RC2Pmn in the presence of 1 μM factor.
Where [10] appears, read: RC2Pmn, 0-1.5 μM RRF (near Kd,GS2).

For the compound “S192C: single-cysteine S192C RF1 (PVT domain) labeled with Cy5”, the “lifetime of the FRET state (dwell time analysis)” value in test [1] is below 0.38 ± 0.02 s.

Consider “RF3: Escherichia coli class II release factor, a GTPase”, for which the “nucleotide dependence of RF3-catalyzed RF1 recycling” value in the test on RF1-bound RCs is on record as “exhibits the proper nucleotide dependence in recycling RF1”.

For RF3(GDP): RF3 in the GDP form, the “kGS2→GS1 relative to RC2Pmn in the absence of RF1, RF3 and guanine nucleotide” value in test [2] (RC2RF1+RF3(GDP)+GTP versus 1.36±0.03 s^−1) is given as around 3 fold. Moreover, in test [2] (RC2RF1+RF3(GDP)+GTP, 1 μM RF1, 10 μM GDP and 1 mM GTP, corrected rate, lower limit), the kGS2→GS1 is at least 3.7 ± 0.6 s⁻¹. In addition, in test [2] (setting [6]), the “trajectories exhibiting fluctuations between GS1 and GS2” value stood at 42%; the “trajectories stably centered at 0.16 FRET (GS1)” value was found to be 58%. Also, in test [2] (setting [7]), the “trajectories fluctuating between 0.16 and 0.76 FRET” value came out at 2%; the “trajectories stably centered at 0.16 FRET (GS1)” value was 98%.

As for “nucleotide-free RF3: RF3 without guanine nucleotide”, in test [2] (setting [7]), the “trajectories fluctuating between 0.16 and 0.76 FRET” value amounted to 1%; the “trajectories stably centered at 0.16 FRET (GS1)” value turned out to be 99%.

For `COc1ccc(C[C@H](N)C(=O)N[C@H]2[C@@H](O)[C@H](n3cnc4c(N(C)C)ncnc43)O[C@@H]2CO)cc1` [puromycin, reference compound], the “trajectories fluctuating between 0.16 and 0.76 FRET” value in test [2] (RC2 pre-treated with puromycin (RC2Pmn), no factors) is listed as around 63%. Moreover, in test [2] (setting [8]), the kGS1→GS2 was 0.52 ± 0.03 s⁻¹ and the kGS2→GS1 is 1.36 ± 0.03 s⁻¹.

For “RRF: Escherichia coli ribosome recycling factor”, the “kGS1→GS2 relative to free RC2Pmn” value in test [2] (50 μM RRF versus 0.52±0.03 s^−1) amounted to 1.6 fold. Besides, in test [2] (setting [9]), the “trajectories fluctuating between 0.16 and 0.76 FRET” value was found to be 70%; the “trajectories stably centered at / sampling only 0.16 FRET (GS1)” value is given as 7%; the “trajectories stably centered at / sampling only 0.76 FRET (GS2)” value is given as 23%. In test [2] (setting [10]), the “kGS1→GS2 as a function of RRF concentration” value is given as “remain unchanged” and the “kGS2→GS1 as a function of RRF concentration” value is on record as “decreases linearly”. The kGS1→GS2 in test [2] (RC2Pmn, 50 μM RRF) worked out at 0.83 ± 0.06 s⁻¹. Also, in test [3], the Kd was 12000 ± 2000 nM. Further, the Kd in test [4] (RC2Pmn + RRF titration) was determined as 900 ± 300 nM. In addition, in test [4] (from Kd,GS2 and Kd,GS1), the “binding to GS2 over GS1” value is listed as “greater than an order of magnitude tighter binding to GS2 over GS1”. Besides, the Kd on vacant ribosomes is 200 to 600 nM.

Regarding “RF1: Escherichia coli class 1 release factor 1, purified, co-expressed with PrmC methyltransferase”, in test [2] (setting [9]), the “trajectories fluctuating between 0.16 and 0.76 FRET” value is recorded as 9%; the “trajectories stably centered at / sampling only 0.16 FRET (GS1)” value is 85%; the “trajectories stably centered at / sampling only 0.76 FRET (GS2)” value came out at 6%. Moreover, the “trajectories fluctuating between 0.16 and 0.76 FRET” value in test [2] (RC2 in the presence of 1 μM factor) came to 2%. The “trajectories stably centered at 0.16 FRET (GS1)” value in test [2] (RC2 in the presence of 1 μM factor (87% without RF1)) was found to be 98%.

As to `NC[C@@H]1O[C@H](O[C@H]2[C@@H](O)[C@H](O[C@@H]3[C@@H](O)[C@H](N)C[C@H](N)[C@H]3O[C@H]3O[C@H](CO)[C@@H](O)[C@H](O)[C@H]3N)O[C@@H]2CO)[C@H](N)[C@@H](O)[C@@H]1O` [paromomycin], in test [5], the “inhibition of polypeptide release at a stop codon” value was “very strongly inhibits polypeptide release at a stop codon”.

Take “RF3(GDPNP): RF3 with GDPNP, a non-hydrolyzable GTP analog”: in test [2] (setting [9]), the “trajectories fluctuating between 0.16 and 0.76 FRET” value was found to be 22%; the “trajectories stably centered at / sampling only 0.16 FRET (GS1)” value is listed as 5%; the “trajectories stably centered at / sampling only 0.76 FRET (GS2)” value is reported as 73%.
